Toxic doses and inconclusive results are not listed. No stated cut-off is given here; in the data, active means T/C of 150% or more; inactive means T/C below 125%.
System: L1210 leukemia ip in BDF1 mice, survival T/C
Assay: NCI In Vivo Anticancer Drug Screen. Data for tumor model L1210 Leukemia (intraperitoneal) in B6D2F1 (BDF1) mice
Details: higher = longer survival
How it was run: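 Read-out is survival time, reported as the treated-group measurement over the vehicle-control measurement.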

[1] = endpoint: mean survival time, dose: 200.0 mg/kg/injection, schedule: Q04DX002 (ip), vehicle: saline with Tween-80
[2] = endpoint: mean survival time, dose: 400.0 mg/kg/injection, schedule: Q04DX002 (ip), vehicle: saline with Tween-80
[3] = endpoint: mean survival time, dose: 100.0 mg/kg/injection, schedule: Q01DX009 (ip), vehicle: saline with Tween-80
[4] = endpoint: mean survival time, dose: 100.0 mg/kg/injection, schedule: Q04DX003 (ip), vehicle: Klucel (hydroxypropylcellulose) (HPC)
[5] = endpoint: mean survival time, dose: 200.0 mg/kg/injection, schedule: Q04DX003 (ip), vehicle: Klucel (hydroxypropylcellulose) (HPC)
[6] = endpoint: mean survival time, dose: 400.0 mg/kg/injection, schedule: Q04DX003 (ip), vehicle: Klucel (hydroxypropylcellulose) (HPC)
[7] = endpoint: mean survival time, dose: 100.0 mg/kg/injection, schedule: Q01DX001 (ip), vehicle: saline
[8] = endpoint: mean survival time, dose: 200.0 mg/kg/injection, schedule: Q01DX001 (ip), vehicle: saline
[9] = endpoint: mean survival time, dose: 400.0 mg/kg/injection, schedule: Q01DX001 (ip), vehicle: saline

Measured: T/C

CC(C)C1=CC2=CCC3C(C)(CN)CCCC3(C)C2CC1CCN (centres undefined)
inactive: endpoint: mean survival time, dose: 1.25 mg/kg/injection, schedule: Q04DX003 (ip), vehicle: saline 100 % of control | endpoint: mean survival time, dose: 2.5 mg/kg/injection, schedule: Q04DX003 (ip), vehicle: saline 108 % of control | endpoint: mean survival time, dose: 5.0 mg/kg/injection, schedule: Q04DX003 (ip), vehicle: saline with Tween-80 96 % of control | endpoint: mean survival time, dose: 5.0 mg/kg/injection, schedule: Q04DX003 (ip), vehicle: saline 101 % of control

CC(=O)Nc1ccc2[nH]c(C)cc(=O)c2c1
inactive: endpoint: mean survival time, dose: 100.0 mg/kg/injection, schedule: Q01DX009 (ip), vehicle: water 98 % of control | endpoint: mean survival time, dose: 100.0 mg/kg/injection, schedule: Q04DX003 (ip), vehicle: water 110 % of control | endpoint: mean survival time, dose: 200.0 mg/kg/injection, schedule: Q01DX009 (ip), vehicle: water 96 % of control | endpoint: mean survival time, dose: 200.0 mg/kg/injection, schedule: Q04DX003 (ip), vehicle: water 110 % of control | endpoint: mean survival time, dose: 400.0 mg/kg/injection, schedule: Q01DX009 (ip), vehicle: water 100 % of control | endpoint: mean survival time, dose: 400.0 mg/kg/injection, schedule: Q04DX003 (ip), vehicle: water 107 % of control

CN1CN(c2ccccc2)C2(CCN(CCCCCCCl)CC2)C1=O
inactive: endpoint: mean survival time, dose: 75.0 mg/kg/injection, schedule: Q04DX003 (ip), vehicle: Klucel (hydroxypropylcellulose) (HPC) 95 % of control | endpoint: mean survival time, dose: 150.0 mg/kg/injection, schedule: Q04DX003 (ip), vehicle: Klucel (hydroxypropylcellulose) (HPC) 96 % of control | endpoint: mean survival time, dose: 300.0 mg/kg/injection, schedule: Q04DX003 (ip), vehicle: Klucel (hydroxypropylcellulose) (HPC) 95 % of control

C=C(C)C(=O)O[C@H]1CC2=C[C@@H](C[C@@]3(C)O[C@@H]3[C@H]3OC(=O)C(=C)[C@@H]31)OC2=O
inactive: endpoint: mean survival time, dose: 2.5 mg/kg/injection, schedule: Q01DX009 (ip), vehicle: saline + alcohol 112 % of control | endpoint: mean survival time, dose: 5.0 mg/kg/injection, schedule: Q01DX009 (ip), vehicle: saline + alcohol 110 % of control | endpoint: mean survival time, dose: 5.0 mg/kg/injection, schedule: Q01DX Z (ip), vehicle: saline 106 % of control | endpoint: mean survival time, dose: 10.0 mg/kg/injection, schedule: Q01DX009 (ip), vehicle: carboxymethylcellulose (CMC) 105 % of control | endpoint: mean survival time, dose: 10.0 mg/kg/injection, schedule: Q01DX009 (ip), vehicle: saline + alcohol 107 % of control | endpoint: mean survival time, dose: 10.0 mg/kg/injection, schedule: Q01DX Z (ip), vehicle: carboxymethylcellulose (CMC) 97 % of control | endpoint: mean survival time, dose: 10.0 mg/kg/injection, schedule: Q01DX Z (ip), vehicle: saline 101 % of control | endpoint: mean survival time, dose: 20.0 mg/kg/injection, schedule: Q01DX009 (ip), vehicle: carboxymethylcellulose (CMC) 93 % of control | endpoint: mean survival time, dose: 20.0 mg/kg/injection, schedule: Q01DX009 (ip), vehicle: saline + alcohol 105 % of control | endpoint: mean survival time, dose: 20.0 mg/kg/injection, schedule: Q01DX Z (ip), vehicle: carboxymethylcellulose (CMC) 100 % of control | endpoint: mean survival time, dose: 40.0 mg/kg/injection, schedule: Q01DX009 (ip), vehicle: carboxymethylcellulose (CMC) 100 % of control | endpoint: mean survival time, dose: 40.0 mg/kg/injection, schedule: Q01DX009 (ip), vehicle: saline + alcohol 90 % of control | endpoint: mean survival time, dose: 40.0 mg/kg/injection, schedule: Q01DX Z (ip), vehicle: carboxymethylcellulose (CMC) 103 % of control

Cc1cc(C)c(O)c(Br)c1
inactive: endpoint: mean survival time, dose: 100.0 mg/kg/injection, schedule: Q04DX002 (ip), vehicle: saline with Tween-80 103 % of control | [1] 96 % of control | [2] 107 % of control

CCOc1ccccc1NCN1C(=O)c2ccccc2C1=O
inactive: [3] 90 % of control | [2] 91 % of control
active: [1] 223 % of control

CN(Cc1cnc2nc(N)nc(N)c2n1)c1ccc(C(=O)NC(CCC(=O)O)C(=O)O)c(Cl)c1 (centres undefined)
active: endpoint: mean survival time, dose: 25.0 mg/kg/injection, schedule: Q01DX009 (ip), vehicle: sodium bicarbonate 154 % of control

O=c1ccn(CCC(COCc2ccccc2)COCc2ccccc2)c(=O)[nH]1
inactive: [4] 96 % of control | [5] 101 % of control | [6] 101 % of control

Cc1cc(C)c(Sc2cc(C)sc2C)c(C)c1
inactive: endpoint: mean survival time, dose: 100.0 mg/kg/injection, schedule: Q01DX001 (ip), vehicle: acetone 91 % of control | endpoint: mean survival time, dose: 100.0 mg/kg/injection, schedule: Q04DX003 (ip), vehicle: acetone 91 % of control | endpoint: mean survival time, dose: 200.0 mg/kg/injection, schedule: Q01DX001 (ip), vehicle: acetone 91 % of control | endpoint: mean survival time, dose: 200.0 mg/kg/injection, schedule: Q04DX003 (ip), vehicle: acetone 91 % of control | endpoint: mean survival time, dose: 400.0 mg/kg/injection, schedule: Q01DX001 (ip), vehicle: acetone 91 % of control | endpoint: mean survival time, dose: 400.0 mg/kg/injection, schedule: Q04DX003 (ip), vehicle: acetone 100 % of control

NC(=O)C[CH2][Sn]([c]1ccccc1)([c]1ccccc1)[c]1ccccc1
inactive: endpoint: mean survival time, dose: 50.0 mg/kg/injection, schedule: Q01DX009 (ip), vehicle: saline with Tween-80 101 % of control | [3] 112 % of control

N/N=C\c1cnnc2ccccc12
inactive: [7] 95 % of control | [8] 95 % of control | [9] 98 % of control

CS(C)=O
inactive: [7] 112 % of control | [8] 102 % of control | [9] 106 % of control | endpoint: mean survival time, dose: 1500.0 mg/kg/injection, schedule: Q01DX Z (ip), vehicle: other 98 % of control | endpoint: mean survival time, dose: 1.6 grams/kg/injection, schedule: Q03HX008 (ip), vehicle: saline 97 % of control | endpoint: mean survival time, dose: 1.6 grams/kg/injection, schedule: Q03HX016 (ip), vehicle: saline 101 % of control | endpoint: mean survival time, dose: 1.6 grams/kg/injection, schedule: Q03HX024 (ip), vehicle: saline 105 % of control | endpoint: mean survival time, dose: 3000.0 mg/kg/injection, schedule: Q01DX Z (ip), vehicle: other 98 % of control | endpoint: mean survival time, dose: 3.1 grams/kg/injection, schedule: Q01DX001 (ip), vehicle: saline 104 % of control | endpoint: mean survival time, dose: 3.1 grams/kg/injection, schedule: Q01DX009 (ip), vehicle: saline 100 % of control | endpoint: mean survival time, dose: 3.1 grams/kg/injection, schedule: Q03HX008 (ip), vehicle: saline 91 % of control | endpoint: mean survival time, dose: 3.1 grams/kg/injection, schedule: Q03HX024 (ip), vehicle: saline 110 % of control | endpoint: mean survival time, dose: 3.1 grams/kg/injection, schedule: Q04DX003 (ip), vehicle: saline 95 % of control | endpoint: mean survival time, dose: 3.1 grams/kg/injection, schedule: Q08DX002 (ip), vehicle: saline 98 % of control | endpoint: mean survival time, dose: 6.3 grams/kg/injection, schedule: Q01DX001 (ip), vehicle: saline 100 % of control | endpoint: mean survival time, dose: 6.3 grams/kg/injection, schedule: Q01DX009 (ip), vehicle: saline 97 % of control | endpoint: mean survival time, dose: 6.3 grams/kg/injection, schedule: Q04DX003 (ip), vehicle: saline 95 % of control | endpoint: mean survival time, dose: 6.3 grams/kg/injection, schedule: Q08DX002 (ip), vehicle: saline 96 % of control | endpoint: median survival time, dose: 0.5 mg/kg/injection, schedule: Q#C X009 (adlb), vehicle: water 106 % of control | endpoint: median survival time, dose: 1.0 mg/kg/injection, schedule: Q01DX019 (adlb), vehicle: water 92 % of control | endpoint: median survival time, dose: 1.0 mg/kg/injection, schedule: Q#C X009 (adlb), vehicle: water 102 % of control | endpoint: median survival time, dose: 2.0 mg/kg/injection, schedule: Q01DX019 (adlb), vehicle: water 97 % of control | endpoint: median survival time, dose: 2.0 mg/kg/injection, schedule: Q#C X009 (adlb), vehicle: water 107 % of control | endpoint: median survival time, dose: 4.0 mg/kg/injection, schedule: Q01DX019 (adlb), vehicle: water 99 % of control | endpoint: median survival time, dose: 4.0 mg/kg/injection, schedule: Q#C X009 (adlb), vehicle: water 101 % of control | endpoint: median survival time, dose: 8.0 mg/kg/injection, schedule: Q#C X009 (adlb), vehicle: water 103 % of control

O/N=C1/C=C(c2ccccc2)C(O)(c2ccccc2)C1 (centres undefined)
inactive: endpoint: mean survival time, dose: 100.0 mg/kg/injection, schedule: Q04DX003 (ip), vehicle: saline with Tween-80 102 % of control | endpoint: mean survival time, dose: 200.0 mg/kg/injection, schedule: Q04DX003 (ip), vehicle: saline with Tween-80 96 % of control | endpoint: mean survival time, dose: 400.0 mg/kg/injection, schedule: Q04DX003 (ip), vehicle: saline with Tween-80 93 % of control

Cc1cc(N=Nc2ccc([N+](=O)[O-])cc2)ccc1O
inactive: endpoint: mean survival time, dose: 100.0 mg/kg/injection, schedule: Q01DX001 (ip), vehicle: Klucel (hydroxypropylcellulose) (HPC) 98 % of control | endpoint: mean survival time, dose: 200.0 mg/kg/injection, schedule: Q01DX001 (ip), vehicle: Klucel (hydroxypropylcellulose) (HPC) 95 % of control

Cc1ccc(S(=O)(=O)NCCCCC(N)C(=O)O)cc1 (centres undefined)
inactive: endpoint: mean survival time, dose: 100.0 mg/kg/injection, schedule: Q01DX009 (ip), vehicle: Klucel (hydroxypropylcellulose) (HPC) 98 % of control | [4] 98 % of control | endpoint: mean survival time, dose: 200.0 mg/kg/injection, schedule: Q01DX009 (ip), vehicle: Klucel (hydroxypropylcellulose) (HPC) 98 % of control | [5] 108 % of control | endpoint: mean survival time, dose: 400.0 mg/kg/injection, schedule: Q01DX009 (ip), vehicle: Klucel (hydroxypropylcellulose) (HPC) 100 % of control | [6] 98 % of control

From PubChem BioAssay AID248 (DTP/NCI, 2004)
